In assay [1] the target is Phosphodiesterase 3 (Homo sapiens) (UniProt Q14432+Q13370). As to the kind of experiment: Inhibition of human platelet Phosphodiesterase 3 at 20 uM.
Assay [2] deals with Phosphodiesterase 4 (Rattus norvegicus, UniProt P14270+P14646+P14644+P54748). Nature of the assay: Inhibition of rolipram binding to PDE4 in rat brain. It counts as tissue-based.
Assay [3] has as its target T1, Phosphodiesterase 4 (Homo sapiens, UniProt P27815+Q08499+Q07343+Q08493). Nature of the assay: Inhibition of Phosphodiesterase 4 from human U937 cells. It counts as cell-based. The following applies: u-937.
Assay [4] addresses T1, Phosphodiesterase 4. Nature of the assay: Relative inhibition of PDE4 activity and rolipram binding. The assay is classed as protein assay.

One may read the inhibition as the relative decrease from the control value, in per cent. The IC50 is the concentration that inhibits the measured activity by half.

Regarding `COc1ccc(C(=O)Nc2c(Cl)cncc2Cl)c2ccc(C#N)nc12`, the inhibition in assay [1] was determined as 38%. Moreover, the IC50 on Phosphodiesterase 4 [2] came to 43 nM; at Phosphodiesterase 4 [3], 700 nM. Besides, the Ratio at Phosphodiesterase 4 [4] turned out to be 16.3.
In turn, `CON=C(C)c1ccc2c(C(=O)Nc3c(Cl)cncc3Cl)ccc(OC)c2n1` came in with an inhibition in assay [1] of 22%. Further, the half-maximal inhibitory concentration (IC50) at Phosphodiesterase 4 [2] worked out at 140 nM; on Phosphodiesterase 4 [3] it was 210 nM. Further, on Phosphodiesterase 4 [4], the Ratio was 1.5.
Turning to `COc1ccc(C(=O)Nc2c(Cl)cncc2Cl)c2ccc(C(F)(F)F)nc12`, in assay [1], the inhibition was 15%. Besides, the values for the IC50 on Phosphodiesterase 4 [2] and against Phosphodiesterase 4 [3] were 77 nM and 51 nM, respectively. Moreover, the Ratio at Phosphodiesterase 4 [4] amounted to 0.66.
Consider `COc1ccc(C(=O)Nc2c(Cl)cncc2Cl)c2ccc(C(C)O)nc12` (stereo not drawn), for which, in assay [1], the inhibition is 30%. Further, the IC50 stood at 790 nM at Phosphodiesterase 4 [2] and 180 nM against Phosphodiesterase 4 [3]. Besides, on Phosphodiesterase 4 [4], the Ratio came out at 0.22.
In assay [1], `COc1ccc(C(=O)Nc2c(Cl)cncc2Cl)c2ccc(C(C)=O)nc12` returned an inhibition of 27%. The IC50 worked out at 1500 nM on Phosphodiesterase 4 [2] and 440 nM at Phosphodiesterase 4 [3]. Moreover, the Ratio at Phosphodiesterase 4 [4] was determined as 0.29.
`COc1ccc(C(=O)Nc2c(Cl)cncc2Cl)c2ccc(C)nc12` displayed an inhibition in assay [1] of 21%. The IC50 on Phosphodiesterase 4 [2] came out at 74 nM; against Phosphodiesterase 4 [3], 88 nM. In addition, the Ratio on Phosphodiesterase 4 [4] is 1.19.
The compound `CCc1ccc2c(C(=O)Nc3c(Cl)cncc3Cl)ccc(OC)c2n1` came in with an inhibition in assay [1] of 35%. Also, the IC50 at Phosphodiesterase 4 [2] stood at 75.3 nM; on Phosphodiesterase 4 [3], 43 nM. Besides, the Ratio on Phosphodiesterase 4 [4] came out at 0.57.
On to `COc1ccc(C(=O)Nc2c(Cl)cncc2Cl)c2cccnc12`, for which the inhibition in assay [1] was 10%.
Compound `CCc1cnc2c(OC)ccc(C(=O)Nc3c(Cl)cncc3Cl)c2c1` yielded an inhibition in assay [1] of 12%. Moreover, the IC50 came out at 160 nM on Phosphodiesterase 4 [2] and 210 nM on Phosphodiesterase 4 [3]. Besides, the Ratio at Phosphodiesterase 4 [4] came out at 1.31.

Source of the values: ChEMBL document CHEMBL1135147, “8-Methoxyquinolines as PDE4 inhibitors” (Bioorg Med Chem Lett, 2002).
